# Results from patent US20190175766A1, “STABILIZED CROSSLINKED NANOBUBBLES FOR DIAGNOSTIC AND THERAPEUTIC APPLICATIONS” (CASE WESTERN RESERVE UNIVERSITY, priority 2016, published 2019).
# What was measured:
# LS174T cell line = test: Cell toxicity test (WST-1); type: cell-based, human
# Protocol: LS174-T human colorectal adenocarcinoma cells (ATCC, Manassas, Va.) were cultured in complete MEM medium (10% fetal bovine serum, 1% penicillin-streptomycin; Invitrogen, Carlsbad, Calif.) and placed in a humidified atmosphere at 37° C. and 5% CO2. Cells were passaged until they were 90% confluent, then detached with 0.25% trypsin-EDTA (Invitrogen, Carlsbad, Calif.).
# One day prior to the treatment, cells were passaged at confluence and plated in flat bottom, clear, cell culture treated 96-well plates (Falcon, Franklin Lakes, N.J.) using a cell density of 2.5×10^4 cells/ml, 100 ul for each well overnight. After 24 h of incubation, the surface medium were aspirated carefully and cells were treated for 3 h as following groups: • 1 No treat Incomplete MEM medium were added. • 2. Dox 1 μg/ml Doxorubicin in incomplete MEM medium were added. • 3. Dox-NB 2000 times diluted original Dox-NB in incomplete MEM medium were added. • 4. […]
# Plate wells were filled with relevant treatment medium, sealed with Parafilm® M (Fisher Scientific; Pittsburgh, Pa.), then inverted the plate to ensure the cells contact with Dox-NB for 20 min. […] After that, 1:10 diluted solution of WST-1 reagent ( ) replaced the medium and incubated for 1 h and then the plate was scanned with a TECAN plate reader (infinite M200, San Jose, Calif.) at 450 nm.
# LS174-T cells = test: Measurement of intracellular drug uptake; type: cell-based, human; settings: with and without TUS
# Protocol: LS174-T cells were grown in a 12-well cell culture plate at a cell concentration of 2.5×10^4 cells/ml one day before the treatment. The treatment groups were the same as cell toxicity test above. After 2 h treatment in incubator, the drugs were aspirated and washed with sterile PBS 3 times. The attached cells were fixed with 3% formaldehyde solution for 10 min. After 3 times wash with PBS, the cells of different treatment groups were imaged at 5× and 20× on the Zeiss Axio Observer Z1 motorized FL microscope with the same parameter and scanned zones. Average Dox fluorescence of cells in different treatment groups was calculated by ImageJ.
smiles,measurement,setting,value
"COc1cccc2c1C(=O)c1c(O)c3c(c(O)c1C2=O)C[C@@](O)(C(=O)CO)C[C@@H]3O[C@H]1C[C@H](N)[C@H](O)[C@H](C)O1 [Dox, Doxorubicin]",Fluorescence value (cell viability test),"LS174T cell line; plus therapeutic ultrasound (TUS) 3 MHz, 2 W/cm2, 1 min",0.28 ± 0.06
same,Fluorescence value (cell viability test),"LS174T cell line; without TUS, Dox 1 μg/ml, Dox-NB 2000 times diluted",0.36 ± 0.10
same,location of Dox in treated cells,LS174-T cells,mainly located in nuclei
